For 21 molecules, activity coefficient results are on record in the NIST ThermoML archive (doi:10.1016/j.jct.2018.01.003).

This data set can be described thus: activity coefficient (dimensionless); of the first substance listed, at infinite dilution; xn = mol fraction of the nth substance listed. The note with it: 101.33 kPa, Liquid, Chromatography, x1 = 0.

The structures appear in SMILES notation. Numbers after ± are expanded uncertainties.

Consider `CCOC(C)=O` [ethyl acetate] + CCCCCCCCCCCCCC[P+](CCCCCC)(CCCCCC)CCCCCC.N#CC(=C=[N-])C#N, for which the activity coefficient (328.15 K) is 0.653 ± 0.045; the activity coefficient (338.15 K) is 0.678 ± 0.046; the activity coefficient (348.15 K) was 0.699 ± 0.047; the activity coefficient (358.15 K) came out at 0.724 ± 0.048; the activity coefficient (368.15 K) was determined as 0.746 ± 0.049.

With `c1ccncc1` [pyridine] + CCCCCCCCCCCCCC[P+](CCCCCC)(CCCCCC)CCCCCC.N#CC(=C=[N-])C#N, the activity coefficient is 0.401 ± 0.034 (338.15 K), 0.413 ± 0.034 (348.15 K), 0.425 ± 0.035 (358.15 K) and 0.438 ± 0.035 (368.15 K).

Consider `Cc1ccccc1C` [1,2-dimethylbenzene] + CCCCCCCCCCCCCC[P+](CCCCCC)(CCCCCC)CCCCCC.N#CC(=C=[N-])C#N, for which the activity coefficient runs as follows: (328.15 K) 0.646 ± 0.044; (338.15 K) 0.677 ± 0.046; (348.15 K) 0.706 ± 0.047; (358.15 K) 0.734 ± 0.049; (368.15 K) 0.76 ± 0.05.

As to `CC(C)CO` [2-methyl-1-propanol] + CCCCCCCCCCCCCC[P+](CCCCCC)(CCCCCC)CCCCCC.N#CC(=C=[N-])C#N, the activity coefficient (328.15 K) was 0.412 ± 0.034; the activity coefficient (338.15 K) was 0.418 ± 0.035; the activity coefficient (348.15 K) is 0.423 ± 0.035; the activity coefficient (358.15 K) stood at 0.429 ± 0.035; the activity coefficient (368.15 K) was determined as 0.434 ± 0.035.

`CC(C)CC(C)(C)C` [2,2,4-trimethylpentane] + CCCCCCCCCCCCCC[P+](CCCCCC)(CCCCCC)CCCCCC.N#CC(=C=[N-])C#N: the activity coefficient is 2.22 ± 0.15 (328.15 K); 2.25 ± 0.15 (338.15 K); 2.28 ± 0.16 (348.15 K); 2.31 ± 0.16 (358.15 K); 2.33 ± 0.16 (368.15 K).

Take `C1CCCC1` [cyclopentane] + CCCCCCCCCCCCCC[P+](CCCCCC)(CCCCCC)CCCCCC.N#CC(=C=[N-])C#N: the activity coefficient (328.15 K) is 0.99 ± 0.062; the activity coefficient (338.15 K) is 1 ± 0.06; the activity coefficient (348.15 K) was found to be 1.01 ± 0.06; the activity coefficient (358.15 K) turned out to be 1.03 ± 0.06; the activity coefficient (368.15 K) stood at 1.04 ± 0.07.

On to `CCOCC` [diethyl ether] + CCCCCCCCCCCCCC[P+](CCCCCC)(CCCCCC)CCCCCC.N#CC(=C=[N-])C#N, for which the activity coefficient (328.15 K) worked out at 0.943 ± 0.059; the activity coefficient (338.15 K) turned out to be 0.981 ± 0.062; the activity coefficient (348.15 K) was 1.01 ± 0.06; the activity coefficient (358.15 K) amounted to 1.05 ± 0.07; the activity coefficient (368.15 K) was 1.08 ± 0.07.

Take `Cc1ccc(C)cc1` [1,4-dimethylbenzene] + CCCCCCCCCCCCCC[P+](CCCCCC)(CCCCCC)CCCCCC.N#CC(=C=[N-])C#N: the activity coefficient came to 0.71 ± 0.047 (328.15 K); 0.742 ± 0.049 (338.15 K); 0.773 ± 0.051 (348.15 K); 0.804 ± 0.052 (358.15 K); 0.83 ± 0.053 (368.15 K).

With `C#CCCCC` [1-hexyne] + CCCCCCCCCCCCCC[P+](CCCCCC)(CCCCCC)CCCCCC.N#CC(=C=[N-])C#N, the activity coefficient reads like this: (328.15 K) 0.833 ± 0.054; (338.15 K) 0.875 ± 0.056; (348.15 K) 0.914 ± 0.058; (358.15 K) 0.952 ± 0.06; (368.15 K) 0.987 ± 0.062.

Take `C1CCCCCCC1` [cyclooctane] + CCCCCCCCCCCCCC[P+](CCCCCC)(CCCCCC)CCCCCC.N#CC(=C=[N-])C#N: the activity coefficient by setting is: (328.15 K) 1.32 ± 0.09; (338.15 K) 1.33 ± 0.09; (348.15 K) 1.35 ± 0.09; (358.15 K) 1.36 ± 0.09; (368.15 K) 1.37 ± 0.09.

With `CCCC(=O)OC` [methyl butanoate] + CCCCCCCCCCCCCC[P+](CCCCCC)(CCCCCC)CCCCCC.N#CC(=C=[N-])C#N, the activity coefficient by setting is: (328.15 K) 0.652 ± 0.045; (338.15 K) 0.683 ± 0.046; (348.15 K) 0.709 ± 0.047; (358.15 K) 0.739 ± 0.049; (368.15 K) 0.764 ± 0.05.

Consider `CCCC(C)=O` [pentan-2-one] + CCCCCCCCCCCCCC[P+](CCCCCC)(CCCCCC)CCCCCC.N#CC(=C=[N-])C#N, for which the activity coefficient was 0.459 ± 0.036 (338.15 K), 0.477 ± 0.037 (348.15 K), 0.502 ± 0.038 (358.15 K) and 0.52 ± 0.039 (368.15 K).

Take `CC(C)O` [propan-2-ol] + CCCCCCCCCCCCCC[P+](CCCCCC)(CCCCCC)CCCCCC.N#CC(=C=[N-])C#N: the activity coefficient was 0.503 ± 0.038 (328.15 K); 0.507 ± 0.038 (338.15 K); 0.51 ± 0.038 (348.15 K); 0.514 ± 0.038 (358.15 K); 0.516 ± 0.038 (368.15 K).

On to `CCC(=O)CC` [pentan-3-one] + CCCCCCCCCCCCCC[P+](CCCCCC)(CCCCCC)CCCCCC.N#CC(=C=[N-])C#N, for which the activity coefficient runs as follows: (338.15 K) 0.451 ± 0.036; (348.15 K) 0.47 ± 0.037; (358.15 K) 0.494 ± 0.038; (368.15 K) 0.514 ± 0.038.

As to `CCCCC` [pentane] + CCCCCCCCCCCCCC[P+](CCCCCC)(CCCCCC)CCCCCC.N#CC(=C=[N-])C#N, the activity coefficient by setting is: (328.15 K) 1.59 ± 0.11; (338.15 K) 1.62 ± 0.11; (348.15 K) 1.64 ± 0.11; (358.15 K) 1.67 ± 0.11; (368.15 K) 1.69 ± 0.11.

Consider `CCCCCCC` [heptane] + CCCCCCCCCCCCCC[P+](CCCCCC)(CCCCCC)CCCCCC.N#CC(=C=[N-])C#N, for which the activity coefficient by setting is: (328.15 K) 2.04 ± 0.14; (338.15 K) 2.06 ± 0.14; (348.15 K) 2.08 ± 0.14; (358.15 K) 2.1 ± 0.14; (368.15 K) 2.12 ± 0.14.

With `C#CCCCCCC` [1-octyne] + CCCCCCCCCCCCCC[P+](CCCCCC)(CCCCCC)CCCCCC.N#CC(=C=[N-])C#N, the activity coefficient came out at 1.06 ± 0.07 (328.15 K); 1.11 ± 0.07 (338.15 K); 1.16 ± 0.07 (348.15 K); 1.21 ± 0.08 (358.15 K); 1.25 ± 0.08 (368.15 K).

On to `CCCCCCCC` [octane] + CCCCCCCCCCCCCC[P+](CCCCCC)(CCCCCC)CCCCCC.N#CC(=C=[N-])C#N, for which the activity coefficient worked out at 2.35 ± 0.16 (328.15 K); 2.36 ± 0.16 (338.15 K); 2.37 ± 0.16 (348.15 K); 2.38 ± 0.16 (358.15 K); 2.39 ± 0.16 (368.15 K).

`CC(C)=O` [acetone] + CCCCCCCCCCCCCC[P+](CCCCCC)(CCCCCC)CCCCCC.N#CC(=C=[N-])C#N: the activity coefficient (328.15 K) is 0.454 ± 0.036; the activity coefficient (338.15 K) stood at 0.466 ± 0.036; the activity coefficient (348.15 K) is 0.477 ± 0.037; the activity coefficient (358.15 K) was 0.491 ± 0.037; the activity coefficient (368.15 K) is 0.503 ± 0.038.

On to `C#CCCCCC` [1-heptyne] + CCCCCCCCCCCCCC[P+](CCCCCC)(CCCCCC)CCCCCC.N#CC(=C=[N-])C#N, for which the activity coefficient reads like this: (328.15 K) 0.938 ± 0.059; (338.15 K) 0.982 ± 0.062; (348.15 K) 1.03 ± 0.06; (358.15 K) 1.07 ± 0.07; (368.15 K) 1.11 ± 0.07.

With `CCC(=O)OC` [methyl propanoate] + CCCCCCCCCCCCCC[P+](CCCCCC)(CCCCCC)CCCCCC.N#CC(=C=[N-])C#N, the activity coefficient (328.15 K) is 0.616 ± 0.043; the activity coefficient (338.15 K) is 0.641 ± 0.044; the activity coefficient (348.15 K) was found to be 0.663 ± 0.045; the activity coefficient (358.15 K) is 0.688 ± 0.046; the activity coefficient (368.15 K) was found to be 0.711 ± 0.047.
